# Test results as given in ChEMBL document CHEMBL5291721, “A preclinical secondary pharmacology resource illuminates target-adverse drug reaction associations of marketed drugs” (Nat Commun, 2023).
# *1 amine or outer side, *2 acyl side, *3 side chain or, on linkers, in order; H or OH if unused. Where a SMILES comes first, the peptide text is derived from it. Bridges are numbered along the chain shown (N, C = ends). [ ]: non-standard residue; d: D form. The star is where a group is joined. hTyr(3S-OH,4S-OH,3'-OSO3H) = N[C@H](C(=O)O)[C@H](O)[C@@H](O)c1ccc(O)c(OS(=O)(=O)O)c1; Orn(4R-OH,5R-OH) = O=C([C@H](C[C@@H](O)[C@@H](O)N[*:3])N[*:1])[*:2]; Pro(3S-OH,4S-Me) = C[C@H]1CN[C@H](C(=O)O)[C@H]1O; X1 = CCCCCOc1ccc(-c2cc(-c3ccc(C(=O)*)cc3)no2)cc1; Gln(3R-OH) = NC(=O)C[C@@H](O)[C@H](N)C(=O)O; Hyp = O=C(O)[C@@H]1C[C@@H](O)CN1
# Legend:
# [1] = target: T1, Muscarinic acetylcholine receptor M1 (Homo sapiens, UniProt P11229); type: functional, cell-based
# T1 sequence (P11229 whole entry): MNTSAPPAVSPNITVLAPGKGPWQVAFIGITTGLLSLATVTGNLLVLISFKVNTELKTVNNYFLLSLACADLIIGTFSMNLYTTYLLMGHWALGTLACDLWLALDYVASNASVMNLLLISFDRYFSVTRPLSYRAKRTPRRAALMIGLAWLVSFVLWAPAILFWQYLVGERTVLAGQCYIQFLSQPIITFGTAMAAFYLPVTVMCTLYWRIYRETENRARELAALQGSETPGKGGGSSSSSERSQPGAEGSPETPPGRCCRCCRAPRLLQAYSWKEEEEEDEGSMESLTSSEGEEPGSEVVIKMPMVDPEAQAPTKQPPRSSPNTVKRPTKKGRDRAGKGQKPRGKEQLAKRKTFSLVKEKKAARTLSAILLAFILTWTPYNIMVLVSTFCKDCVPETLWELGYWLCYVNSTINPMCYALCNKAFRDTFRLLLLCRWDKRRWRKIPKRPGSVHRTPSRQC
# [2] = target: T2, 5-hydroxytryptamine receptor 1A (Homo sapiens, UniProt P08908); type: functional, cell-based
# T2 sequence (P08908 whole entry): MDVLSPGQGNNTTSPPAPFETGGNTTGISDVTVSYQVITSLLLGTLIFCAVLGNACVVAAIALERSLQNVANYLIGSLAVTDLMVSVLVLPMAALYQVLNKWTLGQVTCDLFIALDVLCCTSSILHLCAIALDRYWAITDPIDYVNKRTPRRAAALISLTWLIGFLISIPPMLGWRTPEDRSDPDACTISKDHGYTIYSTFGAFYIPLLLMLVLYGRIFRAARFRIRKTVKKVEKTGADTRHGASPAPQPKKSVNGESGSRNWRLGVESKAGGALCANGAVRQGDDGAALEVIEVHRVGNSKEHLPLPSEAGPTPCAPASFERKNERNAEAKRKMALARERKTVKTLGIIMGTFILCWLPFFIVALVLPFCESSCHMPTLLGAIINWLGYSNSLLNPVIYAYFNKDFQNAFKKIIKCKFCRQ
# [3] = target: T3, Alpha-1A adrenergic receptor (Homo sapiens, UniProt P35348); type: functional, cell-based
# T3 sequence (P35348 whole entry): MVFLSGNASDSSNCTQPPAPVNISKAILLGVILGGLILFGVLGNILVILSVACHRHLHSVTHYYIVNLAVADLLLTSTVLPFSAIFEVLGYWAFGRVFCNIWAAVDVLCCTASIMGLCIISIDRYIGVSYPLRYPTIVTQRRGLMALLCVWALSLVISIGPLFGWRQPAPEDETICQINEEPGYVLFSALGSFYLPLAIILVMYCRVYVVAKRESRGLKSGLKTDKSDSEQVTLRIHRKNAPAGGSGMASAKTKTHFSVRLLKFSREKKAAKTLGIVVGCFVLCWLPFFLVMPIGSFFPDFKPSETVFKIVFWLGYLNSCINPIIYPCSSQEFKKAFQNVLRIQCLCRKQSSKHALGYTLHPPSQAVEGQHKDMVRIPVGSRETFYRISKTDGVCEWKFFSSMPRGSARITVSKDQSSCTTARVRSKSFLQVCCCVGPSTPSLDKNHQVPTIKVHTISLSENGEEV
# Thromboxane A2 receptor = target: T4, Thromboxane A2 receptor (Homo sapiens, UniProt P21731)
# T4 sequence (P21731 whole entry): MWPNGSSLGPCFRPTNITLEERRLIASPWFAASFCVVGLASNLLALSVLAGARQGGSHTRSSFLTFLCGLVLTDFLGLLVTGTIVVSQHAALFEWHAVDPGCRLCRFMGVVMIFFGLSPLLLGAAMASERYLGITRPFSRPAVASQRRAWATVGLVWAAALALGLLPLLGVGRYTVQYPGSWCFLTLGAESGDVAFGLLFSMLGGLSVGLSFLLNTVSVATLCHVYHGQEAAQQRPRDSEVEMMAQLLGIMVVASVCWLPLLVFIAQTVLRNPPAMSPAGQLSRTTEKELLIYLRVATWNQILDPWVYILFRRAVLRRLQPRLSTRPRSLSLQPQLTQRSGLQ
# Histamine H2 receptor = Histamine H2 receptor (Homo sapiens, UniProt P25021); type: functional, cell-based
# Chain of Histamine H2 receptor (P25021 whole entry): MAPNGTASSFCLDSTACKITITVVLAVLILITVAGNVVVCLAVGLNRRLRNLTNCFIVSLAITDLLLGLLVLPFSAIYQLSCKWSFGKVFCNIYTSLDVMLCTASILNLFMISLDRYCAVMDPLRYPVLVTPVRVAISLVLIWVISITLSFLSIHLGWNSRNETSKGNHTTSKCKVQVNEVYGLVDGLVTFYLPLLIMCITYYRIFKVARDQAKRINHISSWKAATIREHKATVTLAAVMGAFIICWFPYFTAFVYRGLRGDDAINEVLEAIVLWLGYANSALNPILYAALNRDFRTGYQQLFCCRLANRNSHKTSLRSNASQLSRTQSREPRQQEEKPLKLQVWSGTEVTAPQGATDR
# [4] = target: T5, Gastrin/cholecystokinin type B receptor (Homo sapiens, UniProt P32239)
# T5 sequence (P32239 whole entry): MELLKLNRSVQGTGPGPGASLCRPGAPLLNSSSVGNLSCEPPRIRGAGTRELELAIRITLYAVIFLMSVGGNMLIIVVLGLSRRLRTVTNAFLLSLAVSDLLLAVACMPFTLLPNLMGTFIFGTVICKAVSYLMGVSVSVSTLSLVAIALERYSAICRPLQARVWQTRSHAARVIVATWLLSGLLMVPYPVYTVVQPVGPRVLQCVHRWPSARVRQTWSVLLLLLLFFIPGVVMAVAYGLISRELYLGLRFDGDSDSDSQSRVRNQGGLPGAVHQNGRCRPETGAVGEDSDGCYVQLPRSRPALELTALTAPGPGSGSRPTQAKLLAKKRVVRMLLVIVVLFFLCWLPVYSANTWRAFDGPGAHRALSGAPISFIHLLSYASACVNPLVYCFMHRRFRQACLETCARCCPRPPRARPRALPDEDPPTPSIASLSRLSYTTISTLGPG
# [5] = target: 3',5'-cyclic-AMP phosphodiesterase 4D (Homo sapiens, UniProt Q08499); type: functional
# Chain of 3',5'-cyclic-AMP phosphodiesterase 4D (Q08499 whole entry): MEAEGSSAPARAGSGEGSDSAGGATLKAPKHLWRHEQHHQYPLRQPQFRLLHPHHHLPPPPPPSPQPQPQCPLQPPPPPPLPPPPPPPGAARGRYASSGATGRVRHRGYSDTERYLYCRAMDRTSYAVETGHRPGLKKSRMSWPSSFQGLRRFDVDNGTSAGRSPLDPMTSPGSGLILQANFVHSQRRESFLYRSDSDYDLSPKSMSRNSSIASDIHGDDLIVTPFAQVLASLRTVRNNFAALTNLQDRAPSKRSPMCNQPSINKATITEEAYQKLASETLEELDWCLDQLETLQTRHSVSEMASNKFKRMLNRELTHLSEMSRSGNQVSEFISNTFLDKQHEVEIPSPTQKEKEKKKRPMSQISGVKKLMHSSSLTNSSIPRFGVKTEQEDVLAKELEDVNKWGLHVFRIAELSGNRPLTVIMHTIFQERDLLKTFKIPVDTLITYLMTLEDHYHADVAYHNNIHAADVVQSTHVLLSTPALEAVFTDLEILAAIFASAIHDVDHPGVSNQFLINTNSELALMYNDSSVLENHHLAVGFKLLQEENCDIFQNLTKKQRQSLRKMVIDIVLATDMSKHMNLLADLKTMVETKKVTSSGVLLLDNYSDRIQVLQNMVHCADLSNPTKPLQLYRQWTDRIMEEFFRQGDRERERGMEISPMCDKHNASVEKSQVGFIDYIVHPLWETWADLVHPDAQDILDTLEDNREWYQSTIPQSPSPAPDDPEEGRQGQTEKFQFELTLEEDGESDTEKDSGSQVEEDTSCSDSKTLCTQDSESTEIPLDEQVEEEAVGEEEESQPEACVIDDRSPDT
# Adenosine receptor A3 = target: T6, Adenosine receptor A3 (Homo sapiens, UniProt P0DMS8)
# T6 sequence (P0DMS8 whole entry): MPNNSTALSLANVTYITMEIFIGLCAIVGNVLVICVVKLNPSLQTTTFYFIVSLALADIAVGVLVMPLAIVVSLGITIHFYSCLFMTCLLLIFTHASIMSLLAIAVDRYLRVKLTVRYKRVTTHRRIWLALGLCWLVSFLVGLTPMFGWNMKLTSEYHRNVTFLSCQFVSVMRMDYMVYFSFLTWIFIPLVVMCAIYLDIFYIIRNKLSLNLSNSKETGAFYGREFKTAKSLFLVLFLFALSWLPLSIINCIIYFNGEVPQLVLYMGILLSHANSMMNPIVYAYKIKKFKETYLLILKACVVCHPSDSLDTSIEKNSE
# [6] = target: 5-hydroxytryptamine receptor 2B (Homo sapiens, UniProt P41595); type: functional, cell-based
# Chain of 5-hydroxytryptamine receptor 2B (P41595 whole entry): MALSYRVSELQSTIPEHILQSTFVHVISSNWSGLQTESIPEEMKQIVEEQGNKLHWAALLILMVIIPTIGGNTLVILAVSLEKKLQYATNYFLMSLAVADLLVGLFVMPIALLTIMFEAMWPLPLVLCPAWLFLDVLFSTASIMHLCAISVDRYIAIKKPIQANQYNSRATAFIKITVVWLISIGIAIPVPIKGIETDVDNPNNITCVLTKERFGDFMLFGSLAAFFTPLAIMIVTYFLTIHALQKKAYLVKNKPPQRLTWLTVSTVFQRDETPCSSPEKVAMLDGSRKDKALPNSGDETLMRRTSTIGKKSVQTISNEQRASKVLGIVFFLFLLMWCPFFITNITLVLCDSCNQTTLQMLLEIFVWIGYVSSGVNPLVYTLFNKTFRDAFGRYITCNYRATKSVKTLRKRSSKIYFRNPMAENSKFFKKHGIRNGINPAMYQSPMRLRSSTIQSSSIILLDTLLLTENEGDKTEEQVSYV
# [7] = target: Beta-2 adrenergic receptor (Homo sapiens, UniProt P07550); type: functional, cell-based
# Chain of Beta-2 adrenergic receptor (P07550 whole entry): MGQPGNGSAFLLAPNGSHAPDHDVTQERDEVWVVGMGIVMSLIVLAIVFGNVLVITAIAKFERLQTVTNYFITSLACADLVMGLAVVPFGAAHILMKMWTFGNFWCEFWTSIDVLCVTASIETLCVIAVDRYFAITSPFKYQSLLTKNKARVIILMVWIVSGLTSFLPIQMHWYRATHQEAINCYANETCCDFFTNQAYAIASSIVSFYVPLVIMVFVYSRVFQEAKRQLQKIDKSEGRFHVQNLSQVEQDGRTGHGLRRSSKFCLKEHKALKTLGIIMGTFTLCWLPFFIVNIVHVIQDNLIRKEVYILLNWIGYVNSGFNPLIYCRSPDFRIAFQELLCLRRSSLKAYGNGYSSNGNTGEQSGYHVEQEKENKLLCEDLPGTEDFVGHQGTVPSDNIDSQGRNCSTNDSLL
# Also: assay procedure not described here.
SMILES,AC50 [1] [µM],AC50 [2] [µM],AC50 [3] [µM],AC50 (Thromboxane A2 receptor) [µM],AC50 (Histamine H2 receptor) [µM],AC50 [4] [µM],AC50 [5] [µM],AC50 (Adenosine receptor A3) [µM],AC50 [6] [µM],AC50 [7] [µM]
O=C(Nc1cccc2c(=O)cc(-c3nnn[nH]3)oc12)c1ccc(OCCCCc2ccccc2)cc1,> 30,,,,,,,,,
NC(=O)c1nc(F)c[nH]c1=O,> 30,,,,,,,,,
CC1(C)S[C@@H]2[C@H](NC(=O)[C@H](N)c3ccc(O)cc3)C(=O)N2[C@H]1C(=O)O [AMOXICILLIN],,> 30,> 30,> 30,> 30,> 30,> 30,> 30,> 30,
CNCC[C@@H](Oc1ccccc1C)c1ccccc1 [ATOMOXETINE],,,> 30,> 30,> 30,> 30,> 30,> 30,> 30,
Cc1ccc([C@@H]2O[C@H](CO)[C@@H](O)[C@H](O)[C@H]2O)cc1Cc1ccc(-c2ccc(F)cc2)s1 [CANAGLIFLOZIN ANHYDROUS],> 30,,,,,,,,,
O=C(O)c1cc(=O)c2ccccc2o1 [CHROMOCARB],> 30,,,,,,,,,
Clc1cccc(Cl)c1N=C1NCCN1 [CLONIDINE],,> 10,,> 30,0.39,> 30,> 30,> 30,> 10,
N[C@@H](CSSC[C@H](N)C(=O)O)C(=O)O [CYSTINE],> 30,,,,,,,,,
CN1C[C@H](C(=O)N[C@]2(C)O[C@@]3(O)[C@@H]4CCCN4C(=O)[C@H](Cc4ccccc4)N3C2=O)C[C@@H]2c3cccc4[nH]cc(c34)C[C@H]21 [DIHYDROERGOTAMINE],,0.14,,13.7,0.62,> 30,6.7,> 30,2.77,
CNCC[C@H](Oc1cccc2ccccc12)c1cccs1 [DULOXETINE],,8.9,,> 30,> 10,> 30,,> 30,> 10,
C[C@]12CC[C@@H]3c4ccc(O)cc4CC[C@H]3[C@@H]1CC[C@@H]2OC(=O)CCC1CCCC1 [ESTRADIOL CYPIONATE],> 30,,,,,,,,,
C[C@]12CCC(=O)C=C1CC[C@@H]1[C@@H]2[C@@H](O)C[C@@]2(C)[C@H]1CC[C@]2(O)C(=O)COC(=O)CCC(=O)O [HYDROCORTISONE HEMISUCCINATE ANHYDROUS],> 30,,,,,,,,,
N=C(N)NCc1cccc([123I])c1 [IOBENGUANE I 123],> 30,,,,,,,,,
CC(C)(N)C(=O)N[C@H](Cc1c[nH]c2ccccc12)C(=O)N[C@H](Cc1c[nH]c2ccccc12)NC=O [MACIMORELIN],> 30,,,,,,,,,
C=C1c2c(Cl)ccc(O)c2C(=O)C2=C(O)[C@]3(O)C(=O)C(C(N)=O)=C(O)[C@@H](N(C)C)[C@@H]3[C@@H](O)[C@H]12 [MECLOCYCLINE],> 30,,,,,,,,,
CC[C@@H](CO)NC(=O)[C@@H]1C=C2c3cccc4[nH]cc(c34)C[C@H]2N(C)C1 [METHYLERGONOVINE],,0.0144,,> 30,0.058,> 30,> 30,> 30,0.0257,> 30
"CCCCCOc1ccc(-c2cc(-c3ccc(C(=O)N[C@H]4C[C@@H](O)[C@@H](O)NC(=O)[C@@H]5[C@@H](O)[C@@H](C)CN5C(=O)[C@H]([C@H](O)CC(N)=O)NC(=O)[C@H]([C@H](O)[C@@H](O)c5ccc(O)c(OS(=O)(=O)O)c5)NC(=O)[C@@H]5C[C@@H](O)CN5C(=O)[C@H]([C@@H](C)O)NC4=O)cc3)no2)cc1 [MICAFUNGIN] (X1-[Orn(4R-OH,5R-OH)]T[Hyp][hTyr(3S-OH,4S-OH,3'-OSO3H)][Gln(3R-OH)][Pro(3S-OH,4S-Me)]; lactam 1-C)",9.05,,,,,,,,,
CNCCC=C1c2ccccc2CCc2ccccc21 [NORTRIPTYLINE],,> 30,0.036,> 30,> 30,> 30,7.5,> 30,> 30,
COc1ccc(Cc2nccc3cc(OC)c(OC)cc23)cc1OC [PAPAVERINE],,> 30,> 30,> 30,> 30,> 30,,> 30,> 30,
CNC[C@H](O)c1cccc(O)c1 [PHENYLEPHRINE],> 30,> 30,,> 30,> 10,> 30,> 30,> 30,> 30,
NC(=O)c1ncn([C@@H]2O[C@H](CO)[C@@H](O)[C@H]2O)n1 [RIBAVIRIN],,> 10,> 30,> 10,> 10,,> 30,> 10,> 10,
O=C(Nc1c(Cl)cncc1Cl)c1ccc(OC(F)F)c(OCC2CC2)c1 [ROFLUMILAST],,> 30,> 30,> 30,> 30,> 30,,> 30,> 30,
CCCN(CCc1cccs1)[C@H]1CCc2c(O)cccc2C1 [ROTIGOTINE],,> 10,,,,,> 30,24,0.43,> 30
CCCCNc1ccc(C(=O)OCCN(C)C)cc1 [TETRACAINE],,> 10,> 30,> 30,> 10,> 30,> 30,> 30,> 10,
CC1(C)O[C@@H]2[C@@H](CO[C@@]3(COS(N)(=O)=O)OC(C)(C)O[C@@H]23)O1 [TOPIRAMATE],> 30,> 10,,> 30,> 10,> 30,> 30,> 30,> 10,
NCCc1ccc(O)cc1 [TYRAMINE],> 30,,,,,,,,,
